According to ChEMBL document CHEMBL1126983, “Catalytic functionalization of polymers: a novel approach to site specific delivery of misoprostol to the stomach” (1993):

Legend:
[1] = test system: Rattus norvegicus; assay: Compound was tested for diarrheagenic activity in rats after intrajejuna administration (I.J); format: functional
[2] = test system: Rattus norvegicus; assay: Compound was tested for diarrheagenic activity in rats after intracolonic administration (I.C); format: functional
[3] = species on record: Rattus norvegicus; assay: Compound was tested for mucosal protective activity against indomethacin-induced gastric damage in rats; format: functional, Stomach
[4] = species on record: Rattus norvegicus; assay: Compound was tested for mucosal protective activity in rats using 4 hr EtOH model; format: functional
[5] = species on record: Rattus norvegicus; assay: Compound was tested for mucosal protective activity against indomethacin-induced intestinal damage in rats; format: functional
[6] = test system: Rattus norvegicus; assay: Compound was tested for diarrheagenic activity in rats after intragastric administration (I.G); format: functional

Q: How did the ED50 [1] turn out when CCCCC(C)(O)C/C=C/[C@H]1[C@H](O)CC(=O)[C@@H]1CCCCCCC(=O)OC (stereo partly specified) [MISOPROSTOL] was run?
A: The ED50 was 534 (ug of misoprostol) kg-1.

Q: And the ED50 [2]?
A: The ED50 was 97 (ug of misoprostol) kg-1.

Q: What about the ED50 [3] of the same compound?
A: The ED50 was 14 (ug of misoprostol) kg-1.

Q: What about the ED50 [4] of the same compound?
A: The ED50 was 525 (ug of misoprostol) kg-1.

Q: And the ED50 [5]?
A: The ED50 was 294 (ug of misoprostol) kg-1.

Q: What about the ED50 [6] of the same compound?
A: The ED50 was 265 (ug of misoprostol) kg-1.
